Experiment: shake flask on a mixture of 185; loss from the water phase only; LC-Orbitrap peak areas
Details: room

SMILES	log partition 1-octanol / HPLC water, unbuffered, traces of methanol / DMSO [log10]	log partition butyl acetate / HPLC water, unbuffered, traces of methanol / DMSO [log10]	log partition chloroform / HPLC water, unbuffered, traces of methanol / DMSO [log10]	log partition cyclohexane / HPLC water, unbuffered, traces of methanol / DMSO [log10]	log partition dichloromethane / HPLC water, unbuffered, traces of methanol / DMSO [log10]	log partition n-hexane / HPLC water, unbuffered, traces of methanol / DMSO [log10]	log partition n-octane / HPLC water, unbuffered, traces of methanol / DMSO [log10]	log partition n-undecane / HPLC water, unbuffered, traces of methanol / DMSO [log10]	log partition oleylalcohol / HPLC water, unbuffered, traces of methanol / DMSO [log10]	log partition toluene / HPLC water, unbuffered, traces of methanol / DMSO [log10]
OC(c1ccc(F)cc1)(c1cncnc1)c1ccccc1Cl (stereo not shown)	2.087	2.226	2.317	2.077	2.933	1.642	1.699	1.456	1.561	2.565
CCCCCCOc1cc(C)c(O)c(C)c1C	-0.6155	-0.05403	0.3185	-0.4525	-0.07725	-0.4691	-0.1513	-0.6506	0.4249	-0.2013
CCCN(CCC)c1c([N+](=O)[O-])cc(C(C)C)cc1[N+](=O)[O-]	1.667	0.7238	0.1749	-0.3058	-0.415	0.4636	-0.4473	-0.3356	0.7657	0.0275
CCCCC(CC)C(=O)OCCOCCOCCOCCOC(=O)C(CC)CCCC (stereo not shown)	1.119	-0.08786	-0.484	-2.242	-0.03133	-1.802	-2.665	-0.9886	1.482	0.3117
O=C(OC1CCCCC1)c1ccccc1C(=O)OC1CCCCC1	0.6596	0.2225	0.1245	-0.9365	0.1411	-0.6432	-1.045	-0.8058	-0.79	-1.067
CCCC1COC(Cn2cncn2)(c2ccc(Cl)cc2Cl)O1 (stereo not shown)	0.3483	0.1767	0.2115	0.2977	0.2897	0.2474	0.3088	0.1588	0.003105	0.07569
CN(C)c1ccc(Cc2ccc(N(C)C)cc2)cc1	0.3418	1.067	3.139	0.5577	2.123	-0.5531	0.3458	-0.4236	-0.165	1.554

Now from value to compound:

log partition 1-octanol / HPLC water, unbuffered, traces of methanol / DMSO [log10]	log partition butyl acetate / HPLC water, unbuffered, traces of methanol / DMSO [log10]	log partition chloroform / HPLC water, unbuffered, traces of methanol / DMSO [log10]	log partition cyclohexane / HPLC water, unbuffered, traces of methanol / DMSO [log10]	log partition dichloromethane / HPLC water, unbuffered, traces of methanol / DMSO [log10]	log partition n-hexane / HPLC water, unbuffered, traces of methanol / DMSO [log10]	log partition n-octane / HPLC water, unbuffered, traces of methanol / DMSO [log10]	log partition n-undecane / HPLC water, unbuffered, traces of methanol / DMSO [log10]	log partition oleylalcohol / HPLC water, unbuffered, traces of methanol / DMSO [log10]	log partition toluene / HPLC water, unbuffered, traces of methanol / DMSO [log10]	SMILES
-0.9913	-0.2228	0.8465	-0.9247	1.732	-0.7252	-1.742	-1.577	0.1202	0.5941	O=C1OC(=O)C2C3C=CC(C3)C12 (stereo not shown)
-0.6855	0.116	-0.6877	-1.286	-0.3134	-0.9598	-1.232	-1.337	-0.1989	-0.7201	O=C(O)c1ccccc1C(c1ccc(O)cc1)c1ccc(O)cc1
0.8444	0.4506	0.8919	-0.4431	0.1616	-0.7051	-0.2813	-0.7594	0.2271	-0.3508	CC(=O)Oc1ccc(C(C)=O)cc1
-0.1403	-0.382	0.06183	-0.6197	-0.09834	-0.5466	-0.6932	-0.7318	-0.144	-0.5154	CC(C)c1cccc(O)c1
1.712	0.5487	0.2279	–	0.3361	–	–	–	0.1785	-0.2455	NC(=O)N/N=C/c1ccc([N+](=O)[O-])o1
1.602	1.673	1.568	-1.037	1.105	-1.408	-1.192	-1.316	0.8181	0.3445	COC(=O)c1sccc1S(N)(=O)=O
-0.5893	1.182	0.09364	-1.331	0.4348	-1.472	-1.686	0.1413	0.5204	-0.3191	O=C(O)CCN(C1(C(=O)NO)CCCC1)S(=O)(=O)c1ccc(Oc2ccc(F)cc2)cc1

Source: PMC10569036
